# Laboratory results: patent US20240116985A1, “STAPLED PEPTIDES AND METHODS THEREOF” (priority 2020, published 2024)
# Where two headings read alike, the source gives them in different places.
# Assays:
# [1] = target: T1, full-length beta-Catenin (Uniprot ID P35222) (Homo sapiens, UniProt P35222); experiment: Fluorescence polarization IC50 (beta-catenin / 5FAM-TCF4 10-53 competition); type: binding
# T1 construct: 10 nM full-length beta-Catenin (Uniprot ID P35222)
# T1 sequence (P35222 1-781): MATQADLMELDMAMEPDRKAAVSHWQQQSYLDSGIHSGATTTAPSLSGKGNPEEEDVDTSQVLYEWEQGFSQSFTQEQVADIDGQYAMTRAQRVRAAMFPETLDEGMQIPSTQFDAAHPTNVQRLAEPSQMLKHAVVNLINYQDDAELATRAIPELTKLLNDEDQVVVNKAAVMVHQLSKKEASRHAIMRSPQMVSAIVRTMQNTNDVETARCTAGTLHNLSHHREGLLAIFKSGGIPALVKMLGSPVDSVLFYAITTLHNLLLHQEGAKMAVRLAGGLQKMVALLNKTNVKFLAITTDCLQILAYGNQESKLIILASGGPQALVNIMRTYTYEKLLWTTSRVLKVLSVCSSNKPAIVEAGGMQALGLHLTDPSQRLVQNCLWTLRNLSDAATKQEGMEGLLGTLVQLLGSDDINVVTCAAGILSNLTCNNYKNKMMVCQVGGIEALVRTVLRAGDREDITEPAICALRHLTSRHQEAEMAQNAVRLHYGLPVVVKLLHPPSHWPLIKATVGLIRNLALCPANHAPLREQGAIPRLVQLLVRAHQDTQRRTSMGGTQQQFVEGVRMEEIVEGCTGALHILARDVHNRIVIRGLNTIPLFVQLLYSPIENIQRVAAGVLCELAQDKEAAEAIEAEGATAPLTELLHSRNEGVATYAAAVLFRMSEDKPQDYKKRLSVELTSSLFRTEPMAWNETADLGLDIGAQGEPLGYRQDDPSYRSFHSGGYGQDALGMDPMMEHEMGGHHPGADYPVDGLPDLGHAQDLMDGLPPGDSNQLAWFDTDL
# CHI Log D procedure = type: physicochemical; settings: for CHI Log D: pH 7.4; for chromatographic logD: pH 7.4, CHI Log D
# Solubility in PBS = type: physicochemical
# Outline: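 HPLC quantitation of peptide remaining in the PBS supernatant after ultracentrifugation, referenced to a 50 μM solution in DMSO.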
# [2] = fluorescence polarization, read-out: beta-Catenin FP IC50
# [3] = fluorescence polarization, beta-catenin, read-out: FP EC50
"IC50 [1, 2]",IC50 ([1]; read-out: FP EC50),CHI Log D (CHI Log D procedure),Solubility (Solubility in PBS),"IC50 [1, 3]",IC50 ([1]; read-out: beta-Catenin FP IC50),chromatographic logD (CHI Log D procedure),Solubility (Solubility in PBS; Solubility (uM)),SMILES
–,–,2.123,10 µM,357 nM,357 nM,–,–,"CC(=O)N1CCC[C@]12CC=CCCCC1(CCCC=CCCCOC(=O)N3CC[C@@](C(=O)N[C@@H](Cc4ccsc4)C(=O)N[C@@H](Cc4csc5ccccc45)C(=O)N[C@@H](CO)C(N)=O)(C3)NC(=O)[C@H](CC(C)C)NC(=O)[C@H](Cc3ccccc3)NC(=O)[C@H](C)NC(=O)[C@H](C)NC(=O)[C@H](CN(CC(=O)O)CC(F)(F)F)NC(=O)[C@H](CC(=O)O)NC1=O)NC(=O)[C@H](CC(C)(C)C)NC(=O)[C@H](CC(=O)O)NC2=O (stereo partly drawn) [I-961, Ac-PL3-Asp-Npg-B5-Asp-TfeGA-Ala-Ala-Phe-Leu-PyrS2-3Thi-BztA-Ser-NH2]"
–,–,1.695,19 µM,221 nM,221 nM,–,–,"CC(=O)N1CCC[C@]12CC=CCCCC1(CCCC=CCCCOC(=O)N3CC[C@@](C(=O)N[C@@H](Cc4ccsc4)C(=O)N[C@@H](Cc4csc5ccccc45)C(=O)N[C@@H](CCC(N)=O)C(N)=O)(C3)NC(=O)[C@H]([C@@H](C)O)NC(=O)[C@H](Cc3ccccc3)NC(=O)[C@H](C)NC(=O)[C@H](C)NC(=O)[C@H](Cc3cccc(C(=O)O)c3)NC(=O)[C@H](CC(=O)O)NC1=O)NC(=O)[C@H](CC(C)(C)C)NC(=O)[C@H](CC(=O)O)NC2=O (stereo partly drawn) [I-980, Ac-PL3-Asp-Npg-B5-Asp-3COOHF-Ala-Ala-Phe-Thr-PyrS2-3Thi-BztA-Gln-NH2]"
5 nM,–,2.153,43 µM,–,–,–,–,"CC(=O)N1CCC[C@]12CC=CCCCC1(CCCC=CCCCOC(=O)N3CC[C@@](C(=O)N[C@@H](Cc4ccsc4)C(=O)N[C@@H](Cc4csc5ccccc45)C(=O)N[C@@H](Cc4c[nH]cn4)C(N)=O)(C3)NC(=O)[C@H](CC(N)=O)NC(=O)[C@H](Cc3ccccc3)NC(=O)[C@H](C)NC(=O)[C@H](C)NC(=O)[C@H](CCC(=O)O)NC(=O)[C@H](CC(=O)O)NC1=O)NC(=O)[C@H](CC(C)(C)C)NC(=O)[C@H](CC(=O)O)NC2=O (stereo partly drawn) [I-698, Ac-PL3-Asp-Npg-B5-Asp-Glu-Ala-Ala-Phe-Asn-PyrS2-3Thi-BztA-His-NH2]"
70 nM,70 nM,2.851,48 µM,–,–,–,–,"CC(=O)N1CCC[C@]12CC=CCCCC1(CCCC=CCCCCCC[C@@](C)(C(=O)N[C@@H](Cc3ccccc3)C(=O)N[C@@H](Cc3csc4ccccc34)C(N)=O)NC(=O)[C@H](CC(N)=O)NC(=O)[C@H](Cc3ccccc3)NC(=O)[C@H](C)NC(=O)[C@H](C)NC(=O)[C@H](CCC(=O)O)NC(=O)[C@H](CC(=O)O)NC1=O)NC(=O)[C@H](CC(C)(C)C)NC(=O)[C@H](CC(=O)O)NC2=O (stereo partly drawn) [I-713, Ac-PL3-Asp-Npg-B5-Asp-Glu-Ala-Ala-Phe-Asn-S8-Phe-BztA-NH2]"
–,–,1.791,43 µM,2020 nM,2020 nM,–,–,"CCN(CC(=O)O)C[C@@H]1NC(=O)[C@H](CC(=O)O)NC(=O)C2(CCCC=CCCCOC(=O)N3CC[C@@](C(=O)N[C@@H](Cc4ccsc4)C(=O)N[C@@H](Cc4csc5ccccc45)C(=O)N[C@@H](CCC(N)=O)C(N)=O)(C3)NC(=O)[C@H](CO)NC(=O)[C@H](Cc3ccccc3)NC(=O)[C@H](C)NC(=O)[C@H](C)NC1=O)CCCC=CC[C@]1(CCCN1C(C)=O)C(=O)N[C@@H](CC(=O)O)C(=O)N[C@@H](CC(C)(C)C)C(=O)N2 (stereo partly drawn) [I-966, Ac-PL3-Asp-Npg-B5-Asp-EtGA-Ala-Ala-Phe-Ser-PyrS2-3Thi-BztA-Gln-NH2]"
162 nM,–,2.13,50 µM,162 nM,–,–,–,"CC(=O)N1CCC[C@]12CC=CCCCC1(CCCC=CCCCCCC[C@@](C)(C(=O)N[C@@H](Cc3ccsc3)C(=O)N[C@@H](Cc3csc4ccccc34)C(=O)N[C@@H](CCC(N)=O)C(N)=O)NC(=O)[C@H](CC(N)=O)NC(=O)[C@H](Cc3ccccc3)NC(=O)[C@H](C)NC(=O)[C@H](C)NC(=O)[C@H](CC(=O)O)NC(=O)[C@H](CC(=O)O)NC1=O)NC(=O)[C@H](CC(C)(C)C)NC(=O)C[C@H](CC(=O)O)NC2=O (stereo partly drawn) [I-1164, Ac-PL3-RbGlu-Npg-B5-Asp-Asp-Ala-Ala-Phe-Asn-S8-3Thi-BztA-Gln-NH2]"

# Further lines, the molecule ahead of its results:
SMILES,"IC50 [1, 2]",IC50 ([1]; read-out: FP EC50),CHI Log D (CHI Log D procedure),Solubility (Solubility in PBS),"IC50 [1, 3]",IC50 ([1]; read-out: beta-Catenin FP IC50),chromatographic logD (CHI Log D procedure),Solubility (Solubility in PBS; Solubility (uM))
"CC(=O)N1CCC[C@]12CC=CCCCC1(CCCC=CCCCCCC[C@@](C)(C(=O)N[C@@H](Cc3ccccc3)C(=O)N[C@@H](Cc3csc4ccccc34)C(=O)N(C)[C@@H](Cc3cnc[nH]3)C(N)=O)NC(=O)[C@H](CC(N)=O)NC(=O)[C@H](Cc3ccccc3)NC(=O)[C@H](C)NC(=O)[C@H](C)NC(=O)[C@H](CCC(=O)O)NC(=O)[C@H](CC(=O)O)NC1=O)NC(=O)[C@H](CC(C)C)NC(=O)[C@H](CC(=O)O)NC2=O (stereo partly drawn) [I-747, Ac-PL3-Asp-Leu-B5-Asp-Glu-Ala-Ala-Phe-Asn-S8-Phe-BztA-NMeHis-NH2]",2390 nM,2390 nM,2.492,15 µM,–,–,–,–
"CC(=O)N1CCC[C@]12CC=CCCCC1(CCCC=CCCCCCC[C@@](C)(C(=O)N[C@@H](Cc3ccccc3)C(=O)N[C@@H](Cc3csc4ccccc34)C(=O)N[C@@H](CCC(N)=O)C(N)=O)NC(=O)[C@H](CC(N)=O)NC(=O)[C@H](Cc3ccccc3)NC(=O)[C@H](C)NC(=O)[C@H](C)NC(=O)[C@H](CCC(=O)O)NC(=O)[C@H](CC(=O)O)NC1=O)NC(=O)[C@H](C)NC(=O)[C@H](CC(=O)O)NC2=O (stereo partly drawn) [I-424, Ac-PL3-Asp-Ala-B5-Asp-Glu-Ala-Ala-Phe-Asn-S8-Phe-BztA-Gln-NH2]",170 nM,170 nM,1.968,50 µM,–,–,–,–
"CC(=O)N1CCC[C@]12CC=CCCCC1(CCCC=CCCCCCC[C@@](C)(C(=O)N[C@@H](Cc3ccccc3)C(=O)N[C@@H](Cc3csc4ccccc34)C(=O)N[C@H](CO)C(N)=O)NC(=O)[C@H](CC(N)=O)NC(=O)[C@H](Cc3ccccc3)NC(=O)[C@H](C)NC(=O)[C@H](C)NC(=O)[C@H](CCC(=O)O)NC(=O)[C@H](CC(=O)O)NC1=O)NC(=O)[C@H](CC(C)C)NC(=O)[C@H](CC(=O)O)NC2=O (stereo partly drawn) [I-756, Ac-PL3-Asp-Leu-B5-Asp-Glu-Ala-Ala-Phe-Asn-S8-Phe-BztA-dSer-NH2]",–,–,–,–,–,56 nM,2.61,49 µM
"CC[C@H](C)[C@@H]1NC(=O)[C@H](CC(=O)O)NC(=O)[C@]2(CC=CCCCC3(CCCC=CCCCCCC[C@@](C)(C(=O)N[C@@H](Cc4ccccc4)C(=O)N[C@@H](Cc4csc5ccccc45)C(=O)N[C@@H](CCC(N)=O)C(N)=O)NC(=O)[C@H](CCC(N)=O)NC(=O)[C@H](Cc4ccccc4)NC(=O)[C@H](C)NC(=O)[C@H](C)NC(=O)[C@H](CCC(N)=O)NC(=O)[C@H](CC(=O)O)NC3=O)NC1=O)CCCN2C(C)=O (stereo partly drawn) [I-603, Ac-PL3-Asp-Ile-B5-Asp-Gln-Ala-Ala-Phe-Gln-S8-Phe-BztA-Gln-NH2]",392 nM,–,–,10 µM,–,–,2.62,–
"CC[C@H](C)[C@@H]1NC(=O)[C@H](CC(=O)O)NC(=O)[C@]2(CC=CCCCC3(CCCC=CCCCCCC[C@@](C)(C(=O)N[C@@H](Cc4ccccc4)C(=O)N[C@@H](Cc4csc5ccccc45)C(=O)N[C@@H](CCC(N)=O)C(N)=O)NC(=O)[C@H](CCC(N)=O)NC(=O)[C@H](Cc4ccccc4)NC(=O)[C@H](C)NC(=O)[C@H](C)NC(=O)[C@H](CCCNC(N)=O)NC(=O)[C@H](CC(=O)O)NC3=O)NC1=O)CCCN2C(C)=O (stereo partly drawn) [I-605, Ac-PL3-Asp-Ile-B5-Asp-Cit-Ala-Ala-Phe-Gln-S8-Phe-BztA-Gln-NH2]",632 nM,632 nM,2.617,10 µM,–,–,–,–
